Test results reported in US9833497B2, “Human originated EGF domain proteins and use of the same” (CHENGDU SOURCEBIO LIMITED-LIABILITY COMPANY, priority 2013, dated 2017).

What was measured:
Type in all cases: cell-based
E. coli DH5α = assay: Antibacterial activity: MIC and growth curve against E. coli DH5α in 96-well plate; settings: minimal inhibitory concentration against E. coli DH5α; 96-well plate, 5×10^5 CFU/mL, 37° C., judged after 8 h
Procedure, shortened: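 MIC taken as lowest protein level with no bacterial growth, tracked by A600 every 30 min during 37 °C, 175 rpm culture. Two-fold protein series 50-12.5 μg/mL final, triplicate wells, against 5×10^5 CFU/mL of LB-washed mid-log cells.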

E. coli BL21 = assay: MIC against Gram-negative bacteria: E. coli BL21; settings: 5×10^5 CFU/mL
Procedure, shortened: (§1)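 The recombinant human-originated EGF domain proteins were serially diluted two-fold against bacteria at 5×10^5 CFU/mL in LB medium. After shaken incubation at 37° C, the lowest concentration with no bacterial growth was recorded as the MIC.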

Pseudomonas aeruginosa = assay: MIC against Gram-negative bacteria: Pseudomonas aeruginosa; settings: 5×10^5 CFU/mL
Procedure, shortened: as §1

Klebsiella pneumonia = assay: MIC against Gram-negative bacteria: Klebsiella pneumonia; settings: 5×10^5 CFU/mL
Procedure, shortened: as §1

Enterobacter cloacae = assay: MIC against Gram-negative bacteria: Enterobacter cloacae; settings: 5×10^5 CFU/mL
Procedure, shortened: as §1

Aeromonas hydrophila = assay: MIC against Gram-negative bacteria: Aeromonas hydrophila; settings: 5×10^5 CFU/mL
Procedure, shortened: as §1

Citrobacter diversus = assay: MIC against Gram-negative bacteria: Citrobacter diversus; settings: 5×10^5 CFU/mL
Procedure, shortened: as §1

Moraxella catarrhalis = assay: MIC against Gram-negative bacteria: Moraxella catarrhalis; settings: 5×10^5 CFU/mL
Procedure, shortened: as §1

Proteus mirabilis = assay: MIC against Gram-negative bacteria: Proteus mirabilis; settings: 5×10^5 CFU/mL
Procedure, shortened: as §1

Proteus vulgaris = assay: MIC against Gram-negative bacteria: Proteus vulgaris; settings: 5×10^5 CFU/mL
Procedure, shortened: as §1

Serratia marcescens = assay: MIC against Gram-negative bacteria: Serratia marcescens; settings: 5×10^5 CFU/mL
Procedure, shortened: as §1

[1] = E. coli BL21, 10 h cultivation at 37° C.
[2] = P. aeruginosa, 10 h cultivation at 37° C.
[3] = K. pneumonia, 10 h cultivation at 37° C.
[4] = E. cloacae, 10 h cultivation at 37° C.
[5] = A. hydrophila, 10 h cultivation at 37° C.
[6] = C. diversus, 10 h cultivation at 37° C.
[7] = M. catarrhalis, 10 h cultivation at 37° C.
[8] = P. mirabilis, 10 h cultivation at 37° C.
[9] = P. vulgaris, 10 h cultivation at 37° C.
[10] = S. marcescens, 10 h cultivation at 37° C.
[11] = E. coli BL21, 96-well plate, 37° C., 10 h
[12] = Pseudomonas aeruginosa, 96-well plate, 37° C., 10 h
[13] = Klebsiella pneumonia, 96-well plate, 37° C., 10 h
[14] = Enterobacter cloacae, 96-well plate, 37° C., 10 h
[15] = Aeromonas hydrophila, 96-well plate, 37° C., 10 h
[16] = Citrobacter diversus, 96-well plate, 37° C., 10 h
[17] = Moraxella catarrhalis, 96-well plate, 37° C., 10 h
[18] = Proteus mirabilis, 96-well plate, 37° C., 10 h
[19] = Proteus vulgaris, 96-well plate, 37° C., 10 h
[20] = Serratia marcescens, 96-well plate, 37° C., 10 h
[21] = 10 h cultivation at 37° C., two-fold serial dilution

PRT1461 (CNCNTSGTVDGDITCHQNSGQCKCKANVIGLRCDHCNFGFKFLRSFNDVGCEP; listed as Homo sapiens)
12.5 µg/mL: MIC against E. coli BL21 (E. coli BL21; [1]) | MIC against K. pneumonia (Klebsiella pneumonia; Klebsiella pneumonia, 10 h cultivation at 37° C.) | MIC against A. hydrophila (Aeromonas hydrophila; Aeromonas hydrophila, 10 h cultivation at 37° C.) | MIC against M. catarrhalis (Moraxella catarrhalis; Moraxella catarrhalis, 10 h cultivation at 37° C.) | MIC against P. vulgaris (Proteus vulgaris; Proteus vulgaris, 10 h cultivation at 37° C.)
50 µg/mL: MIC against P. aeruginosa (Pseudomonas aeruginosa; Pseudomonas aeruginosa, 10 h cultivation at 37° C.)
25 µg/mL: MIC (E. coli DH5α) | MIC against E. cloacae (Enterobacter cloacae; Enterobacter cloacae, 10 h cultivation at 37° C.) | MIC against C. diversus (Citrobacter diversus; Citrobacter diversus, 10 h cultivation at 37° C.) | MIC against P. mirabilis (Proteus mirabilis; Proteus mirabilis, 10 h cultivation at 37° C.) | MIC against S. marcescens (Serratia marcescens; Serratia marcescens, 10 h cultivation at 37° C.)

PRT438 (DIDECALGRHTCHAGQDCDNTIGSYRCVVRCGSGFRRTSDGLSCQ; listed as Homo sapiens)
25 µg/mL: MIC (E. coli DH5α)
50 µg/mL: MIC (Pseudomonas aeruginosa; [2]) | MIC (Enterobacter cloacae; [4]) | MIC (Citrobacter diversus; [6]) | MIC (Proteus mirabilis; [8]) | MIC (Serratia marcescens; [10])
12.5 µg/mL: MIC (E. coli BL21; [1]) | MIC (Klebsiella pneumonia; [3]) | MIC (Aeromonas hydrophila; [5]) | MIC (Moraxella catarrhalis; [7]) | MIC (Proteus vulgaris; [9])

PRT1305 (SANACSAFKCHHGQCHISDQGEPYCLCQPGFSGEHCQ; listed as Homo sapiens)
12.5 µg/mL: MIC (E. coli DH5α) | MIC against P. aeruginosa (Pseudomonas aeruginosa; [12]) | MIC against E. cloacae (Enterobacter cloacae; [14]) | MIC against C. diversus (Citrobacter diversus; [16]) | MIC against S. marcescens (Serratia marcescens; [20])
50 µg/mL: MIC against E. coli BL21 (E. coli BL21; [11]) | MIC against K. pneumonia (Klebsiella pneumonia; [13]) | MIC against A. hydrophila (Aeromonas hydrophila; [15]) | MIC against M. catarrhalis (Moraxella catarrhalis; [17])
25 µg/mL: MIC against P. mirabilis (Proteus mirabilis; [18]) | MIC against P. vulgaris (Proteus vulgaris; [19])

PRT524 (CNCSRRGTIEAAMPECDRDSGQCRCKPRITGRQCDRCASGFYRFPECVP; listed as Homo sapiens)
50 µg/mL: MIC against S. marcescens (Serratia marcescens; 96-well plate, 37° C., 10 h)
12.5 µg/mL: MIC (E. coli DH5α) | MIC against E. coli BL21 (E. coli BL21; 96-well plate, 37° C., 10 h) | MIC against P. aeruginosa (Pseudomonas aeruginosa; 96-well plate, 37° C., 10 h) | MIC against E. cloacae (Enterobacter cloacae; 96-well plate, 37° C., 10 h) | MIC against P. mirabilis (Proteus mirabilis; 96-well plate, 37° C., 10 h)
100 µg/mL: MIC against C. diversus (Citrobacter diversus; 96-well plate, 37° C., 10 h)
25 µg/mL: MIC against K. pneumonia (Klebsiella pneumonia; 96-well plate, 37° C., 10 h) | MIC against A. hydrophila (Aeromonas hydrophila; 96-well plate, 37° C., 10 h) | MIC against M. catarrhalis (Moraxella catarrhalis; 96-well plate, 37° C., 10 h) | MIC against P. vulgaris (Proteus vulgaris; 96-well plate, 37° C., 10 h)

PRT768 (AIDYCSFGNHSCQHECVSTPGGPRCHCREGHDLQPDGRSCQ; listed as Homo sapiens)
25 µg/mL: MIC (μg/mL) P. aeruginosa (Pseudomonas aeruginosa; [2]) | MIC (μg/mL) M. catarrhalis (Moraxella catarrhalis; [7]) | MIC (μg/mL) P. vulgaris (Proteus vulgaris; [9])
12.5 µg/mL: MIC (E. coli DH5α) | MIC (μg/mL) K. pneumonia (Klebsiella pneumonia; [3]) | MIC (μg/mL) A. hydrophila (Aeromonas hydrophila; [5]) | MIC (μg/mL) P. mirabilis (Proteus mirabilis; [8]) | MIC (μg/mL) S. marcescens (Serratia marcescens; [10])
50 µg/mL: MIC (μg/mL) E. coli BL21 (E. coli BL21; [1]) | MIC (μg/mL) E. cloacae (Enterobacter cloacae; [4]) | MIC (μg/mL) C. diversus (Citrobacter diversus; [6])

PRT1058 (DIDECQLGEHSCGENASCTNTEGGYTCMCAGRLSEPGLICP; listed as Homo sapiens)
25 µg/mL: MIC E. coli BL21 (E. coli BL21; [21]) | MIC K. pneumonia (Klebsiella pneumonia; [21])
12.5 µg/mL: MIC (E. coli DH5α) | MIC E. cloacae (Enterobacter cloacae; [21]) | MIC C. diversus (Citrobacter diversus; [21]) | MIC P. mirabilis (Proteus mirabilis; [21]) | MIC S. marcescens (Serratia marcescens; [21])
50 µg/mL: MIC P. aeruginosa (Pseudomonas aeruginosa; [21]) | MIC A. hydrophila (Aeromonas hydrophila; [21]) | MIC M. catarrhalis (Moraxella catarrhalis; [21]) | MIC P. vulgaris (Proteus vulgaris; [21])

PRT1264 (DIDECGNELNGGCVHDCLNIPGNYRCTCFDGFMLAHDGHNCL; listed as Homo sapiens)
25 µg/mL: MIC against K. pneumonia (Klebsiella pneumonia; [13]) | MIC against A. hydrophila (Aeromonas hydrophila; [15])
50 µg/mL: MIC against E. coli BL21 (E. coli BL21; [11]) | MIC against M. catarrhalis (Moraxella catarrhalis; [17]) | MIC against P. vulgaris (Proteus vulgaris; [19])
12.5 µg/mL: MIC (E. coli DH5α) | MIC against P. aeruginosa (Pseudomonas aeruginosa; [12]) | MIC against E. cloacae (Enterobacter cloacae; [14]) | MIC against C. diversus (Citrobacter diversus; [16]) | MIC against P. mirabilis (Proteus mirabilis; [18]) | MIC against S. marcescens (Serratia marcescens; [20])

PRT1205 (EHDECITNQHNCDENALCFNTVGGHNCVCKPGYTGNGTTCK; listed as Homo sapiens)
50 µg/mL: MIC against P. aeruginosa (Pseudomonas aeruginosa; [12]) | MIC against A. hydrophila (Aeromonas hydrophila; [15]) | MIC against P. mirabilis (Proteus mirabilis; [18])
25 µg/mL: MIC (E. coli DH5α) | MIC against K. pneumonia (Klebsiella pneumonia; [13]) | MIC against M. catarrhalis (Moraxella catarrhalis; [17]) | MIC against S. marcescens (Serratia marcescens; [20])
12.5 µg/mL: MIC against E. coli BL21 (E. coli BL21; [11]) | MIC against E. cloacae (Enterobacter cloacae; [14]) | MIC against C. diversus (Citrobacter diversus; [16]) | MIC against P. vulgaris (Proteus vulgaris; [19])

PRT176 (APLVCRAGCSPEHGFCEQPGECRCLEGWTGPLCT; listed as Homo sapiens)
50 µg/mL: MIC (μg/mL) M. catarrhalis (Moraxella catarrhalis; [7])
25 µg/mL: MIC (E. coli DH5α) | MIC (μg/mL) P. aeruginosa (Pseudomonas aeruginosa; [2]) | MIC (μg/mL) E. cloacae (Enterobacter cloacae; [4]) | MIC (μg/mL) C. diversus (Citrobacter diversus; [6]) | MIC (μg/mL) P. mirabilis (Proteus mirabilis; [8]) | MIC (μg/mL) S. marcescens (Serratia marcescens; [10])
12.5 µg/mL: MIC (μg/mL) E. coli BL21 (E. coli BL21; [1]) | MIC (μg/mL) K. pneumonia (Klebsiella pneumonia; [3]) | MIC (μg/mL) A. hydrophila (Aeromonas hydrophila; [5]) | MIC (μg/mL) P. vulgaris (Proteus vulgaris; [9])

PRT1207 (DIDECSDGFVQCDSRANCINLPGWYHCECRDGYHDNGMFSPSGESCE; listed as Homo sapiens)
12.5 µg/mL: MIC (E. coli DH5α) | MIC against P. aeruginosa (Pseudomonas aeruginosa; [12]) | MIC against K. pneumonia (Klebsiella pneumonia; [13]) | MIC against C. diversus (Citrobacter diversus; [16]) | MIC against P. vulgaris (Proteus vulgaris; [19]) | MIC against S. marcescens (Serratia marcescens; [20])
25 µg/mL: MIC against E. coli BL21 (E. coli BL21; [11]) | MIC against E. cloacae (Enterobacter cloacae; [14]) | MIC against A. hydrophila (Aeromonas hydrophila; [15]) | MIC against M. catarrhalis (Moraxella catarrhalis; [17]) | MIC against P. mirabilis (Proteus mirabilis; [18])
